Measurements: article PMC8308845, “Discovery of Novel Chemical Series of OXA-48 β-Lactamase Inhibitors by High-Throughput Screening” (Pharmaceuticals, 2021)

Legend:
OXA-48 [1] = target: T1, OXA-48 (Klebsiella pneumoniae, UniProt Q6XEC0); test: OXA-48 primary enzymatic assay (nitrocefin substrate, fluorescence-quenching readout); type: biochemical; details: dose–response, median of triplicate wells; 15 min preincubation, 25 µM nitrocefin
T1 construct: made in house; host or cells: E. coli BL21(DE3), T7 expression system
Protocol: After an initial pilot run (three plates, consisting of 960 randomly selected compounds), the primary screening of the subset plates was carried out at 20 µM in single point against OXA-48 enzyme in a nitrocefin-based assay, using the fluorescence-quenching readout. This enzymatic assay employs the cephalosporin nitrocefin as OXA-48 substrate and takes advantage of the fluorescent properties of white microtiter plates. Chromogenic nitrocefin is hydrolyzed by β-lactamases to yield a product with increased absorbance properties (~495 nm) that quenches the plate fluorescence by absorbing the plate’s emission light. In this assay, test compounds that inhibit OXA-48 catalytic activity are predicted to reduce nitrocefin quenching of plate fluorescence, resulting in a quantitative increase in well fluorescence (ON-system for inhibitors). The nitrocefin-based epi-absorbance readout system has been successfully applied in HTS campaigns on other β-lactamases, such as IMP-1 and VIM-2, with the identification of inhibitors belonging to novel scaffolds displaying a favourable degree of selectivity and sub-micromolar potency.
The screening results were expressed as activity percent. […] Overall, the primary assay robustness was good, with Robust Z Prime factor (RZ′) equal to 0.86.
In total, 256 active molecules (125 from the subset and 131 from the full set) were then assayed in dose–response at eight concentrations from 60 to 0.002 µM with interplate triplicate data points.
The blaOXA gene coding for the OXA-48 ß-lactamase, originally cloned from the K. pneumonia 11978 (a clinical isolate from Istanbul Faculty Hospital, Istanbul, Turkey) was overexpressed via a T7 expression system in E. coli BL21(DE3), and its product, native protein, (final yield of 30 mg/L of culture) was subjected to several purification steps, including ion-exchange chromatography with Q-Sepharose and 20 mM Tris-HCl buffer (pH 9.0), followed by chromatography with S-Sepharose columns and 100 mM sodium phosphate buffer (pH 5.8). Elution of the beta-lactamase was performed with a K2SO4 gradient. Peaks of beta-lactamase activity were concentrated and were dialyzed with 100 mM phosphate buffer (pH 7.0). The OXA-48 enzyme was purified to homogeneity (with a degree of purity around 95.4%.)-as measured by 12% SDS PAGE [23]. OXA-48 protein stock solution (2 mg/mL) was finally prepared in 20 mM Hepes (pH 8,1). OXA-48 β-lactamase specific activity was measured by following the hydrolysis of 100 μM nitrocefin (ε: 17,000 M-1 cm^−1 at 482 nm; Δε: 15,000 M-1 cm^−1 at 482 nm) and corresponding to 60.45 μmoles min^−1 mg^−1 of OXA-48 (kcat = 28.85 s^−1) enzyme. A MW of 28,147 g/mol, calculated from the enzyme sequence was confirmed by MALDI-TOF analysis with a Mass error of ± 2.8 Da.
The primary assay was developed to monitor the enzymatic activity of OXA-48 taking advantage of the spectroscopic properties of white microtiter plates (Optiplate-384, PerkinElmer, #6007290), as indicated by Zuck et al.. Nitrocefin is chromogenic substrate for beta-lactamases with λmax = 395 nm (yellow). Upon hydrolysis by OXA-48, nitrocefin yields (2R)-2-[(R)-carboxy[2-(thiophen-2-yl)acetamido]methyl]-5-[(E)-2-(2,4-dinitrophenyl)ethenyl]-3,6-dihydro-2H-1,3-thiazine-4-carboxylic acid, with increased absorbance properties at λmax = 495 nm. Spectroscopic features of the reaction product are exploited to quench the plate intrinsic fluorescence by absorbing the plate’s emission light, which can be monitored by exciting the reaction at 485 nm and recording the emission at 520 nm. Therefore, the primary assay for HTS was an ON-assay, in which compounds targeting OXA-48 were predicted to elicit an increase of the fluorescence signal.
The primary assay was performed in reaction buffer (20 mM Hepes pH 8.0, 12.5 mM NaCl, 0.005% BSA, 0.0005% Brij-35) in the presence of 0.0014 ng/µL OXA-48 and 25 µM nitrocefin in a final volume of 20 µL/well in 384 MTP format. […]

OXA-48 [2] = target: T1, OXA-48; test: Dilution after preincubation of OXA-48 with inhibitors; type: biochemical
Protocol: To confirm the reversibility of OXA-48 inhibition by compounds ID1 and ID2, dilution-after-preincubation tests were also performed. Specifically, the experiments were conducted by preincubating (0 and 60 min) five-fold concentrated test compounds and OXA-48 enzyme, next diluting (1:5) the assay well to the standard reaction conditions and adding the nitrocefin substrate. In parallel, a control experiment with compounds ID1 and ID2 tested under the standard protocol was also run. Based on the assay design, reversible inhibitors are expected to regain enzyme activity after dilution of the enzyme-inhibitor (EI) complex and show no significant difference between AC50 values from samples preincubated under high-concentration and standard conditions. Conversely, irreversible inhibitors are envisaged not to recover any enzyme activity following dilution of the tight EI complex, which will translate in a […] in OXA-48 AC50 of high-concentration preincubated samples.
In order to validate the results obtained in the time-dependent inhibition assay, dose–response curves of reference inhibitor tazobactam, test compounds and enzyme mix were prepared as above described and 5-fold concentrated. Compounds (20 μL of 10X compounds) and enzyme (10 μL 20X enzyme in order to have a 0.0014 ng/µL OXA-48 final concentration) were preincubated for a time period of 60 min with the selected compounds and 90 min with tazobactam. The preincubation time was identified in the time-dependent inhibition experiment as suitable to detect a shift of the IC50 value. At the end of preincubation, the mix was diluted 1:5 times to restore the standard assay conditions as described for time-dependent inhibition. The reactions were started by transferring of 15 μL of enzyme-compounds or control diluted from preincubation plate into assay plate and adding 5 μL 4X nitrocefin substrate (25 µM final concentration) after 60 or 90 min. In parallel, a control experiment was assembled under the same conditions, but omitting the preincubation time between compounds and OXA-48.
a. If the AC50 value observed in the standard assay conditions was substantially unaffected by the preincubation with the 5X samples, the corresponding compound was classified as putative reversible inhibitor.

[3] = preincubation time 0 min, concentrated compound and enzyme, diluted 1:5 before nitrocefin, read-out: OXA-48 AC50, High Dose Preincubation
[4] = preincubation time 0 min, read-out: OXA-48 AC50, Standard Preincubation
[5] = preincubation time 60 min, concentrated compound and enzyme, diluted 1:5 before nitrocefin, read-out: OXA-48 AC50, High Dose Preincubation
[6] = preincubation time 60 min, read-out: OXA-48 AC50, Standard Preincubation

T1 sequence (Q6XEC0 23-265, looked up): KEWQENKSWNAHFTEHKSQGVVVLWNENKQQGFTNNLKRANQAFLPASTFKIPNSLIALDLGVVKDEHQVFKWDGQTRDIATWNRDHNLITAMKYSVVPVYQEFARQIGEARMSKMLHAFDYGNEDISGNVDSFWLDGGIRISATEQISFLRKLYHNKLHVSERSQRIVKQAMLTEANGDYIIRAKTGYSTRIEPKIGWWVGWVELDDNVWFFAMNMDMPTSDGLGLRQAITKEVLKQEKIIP

Structure (SMILES) | AC50 (OXA-48 [1]) | AC50 (OXA-48 [2]; [3]) | AC50 (OXA-48 [2]; [4]) | AC50 (OXA-48 [2]; [5]) | AC50 (OXA-48 [2]; [6]) | AC50 with concentrated preincubation relative to AC50 under standard assay protocol (OXA-48 [2]; 90 min preincubation) | AC50 (OXA-48 [2]; preincubation time 90 min, concentrated compound and enzyme, diluted 1:5 before nitrocefin, read-out: OXA-48 AC50, High Dose Preincubation) | AC50 (OXA-48 [2]; preincubation time 90 min, read-out: OXA-48 AC50, Standard Preincubation)
O=C(O)c1ccc(C=Nn2c(S)nnc2-c2ccccc2)cc1 [ID1] | 1140 nM | 630 nM | 1730 nM | 1090 nM | 1930 nM |  |  | 
CCc1ccc(-c2n[nH]c3nc(-c4ccc(C(=O)O)cc4)cc(C(=O)O)c23)cc1 [ID2] | 990 nM | 1010 nM | 2310 nM | 1450 nM | 2440 nM |  |  | 
C[C@]1(Cn2ccnn2)[C@H](C(=O)O)N2C(=O)C[C@H]2S1(=O)=O [tazobactam, reference compound] | 840 nM | 790 nM | 820 nM |  |  | almost three-fold lower | 97 nM | 260 nM
